# Assay results published in PubChem BioAssay (NCI).
# “And” between values parts separate entries of the source, which are not always exact repeats. Equal entries are not always repeated.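 Protocol summary: plate cells (96-well), add compound at 5 concentrations, incubate 48 h, interpolate endpoints linearly. The concentration for 50% growth inhibition is given as GI50. Definition used: TGI = concentration required for complete inhibition of growth.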
# Tested on: LXFL 529 NSCLC
# Experiment: NCI anticancer screen, dose series, 48 h
row,Structure (SMILES),TGI
1,COC(=O)C(=C/c1ccc(OC)cc1)/C(C(=O)O)=C(/C)c1ccccc1,> 100 µM
2,COC(=O)c1ccc(/C=C2\N=C(C)OC2=O)cc1,> 100 µM
3,Nc1ccc(C(=O)NN2C(=O)C(Cl)C2c2ccccc2Cl)cc1 (centres undefined),5.23 µM
4,O=C1C(Cl)C(c2ccccc2)N1n1cnc2ccccc2c1=O (centres undefined),> 100 µM
5,CCCCN1C=CN2c3nc4cc(C)c(C)cc4n3C(C(=O)OC)=C(C(=O)OC)C12 (centres undefined),> 100 µM
6,CCCCCC(C[N+]1(C)CCOCC1)C(=O)/C=C/c1ccccc1 (centres undefined),11.5 µM
7,C/C(=C1/CCCC2(N=NCC2c2ccccc2)C1=O)c1ccccc1 (centres undefined),65.1 µM

# Tested on: M19-MEL melanoma
# Experiment: NCI anticancer screen, dose series, 48 h
Structure (SMILES),GI50,TGI
C=C1C(=O)O[C@H]2[C@H]1[C@@H](OC(=O)C=C(C)C)CC1=C[C@@H](C[C@@]3(C)O[C@@H]23)OC1=O,4.37 µM,8.29 µM and 16.7 µM
CCOC(=O)C(N)CSC(=O)NC (centres undefined),–,157 µM
O=C1NC(=O)C(CCO)(c2ccccc2)C(=O)N1,–,> 100 µM
Cc1ccc(C2CC(c3ccco3)=NN2c2ccccc2)o1 (centres undefined),–,> 100 µM
COC(=O)C(=C/c1ccc(OC)cc1)/C(C(=O)O)=C(/C)c1ccccc1,–,> 100 µM
COC(=O)c1ccc(/C=C2\N=C(C)OC2=O)cc1,–,> 100 µM
Nc1ccc(C(=O)NN2C(=O)C(Cl)C2c2ccccc2Cl)cc1 (centres undefined),–,20.5 µM
COC(=O)C1OC(Oc2cc(O)c3c(=O)cc(-c4ccc(O)cc4)oc3c2)C(O)C(O)C1O (centres undefined),–,> 100 µM
O=C1C(Cl)C(c2ccccc2)N1n1cnc2ccccc2c1=O (centres undefined),–,> 100 µM
CN(C)C(=O)OCOC(=O)N(C)C,–,> 100 µM
CCCCN1C=CN2c3nc4cc(C)c(C)cc4n3C(C(=O)OC)=C(C(=O)OC)C12 (centres undefined),–,> 100 µM
CCCCCC(C[N+]1(C)CCOCC1)C(=O)/C=C/c1ccccc1 (centres undefined),–,32 µM
C/C(=C1/CCCC2(N=NCC2c2ccccc2)C1=O)c1ccccc1 (centres undefined),–,65 µM

# Tested on: NCI/ADR-RES ovarian
# Experiment: NCI anticancer screen, dose series, 48 h
Structure (SMILES),GI50,TGI
C=C1C(=O)O[C@H]2[C@H]1[C@@H](OC(=O)C=C(C)C)CC1=C[C@@H](C[C@@]3(C)O[C@@H]23)OC1=O,3.89 µM,6.18 µM and 13.4 µM
CCOC(=O)C(N)CSC(=O)NC (centres undefined),–,362 µM
O=C1NC(=O)C(CCO)(c2ccccc2)C(=O)N1,–,> 100 µM
COC(=O)C1OC(Oc2cc(O)c3c(=O)cc(-c4ccc(O)cc4)oc3c2)C(O)C(O)C1O (centres undefined),–,> 100 µM
CN(C)C(=O)OCOC(=O)N(C)C,–,> 100 µM

# Tested on: RXF 393 renal
# Experiment: NCI anticancer screen, dose series, 48 h
row,Structure (SMILES),TGI
1,C=C1C(=O)O[C@H]2[C@H]1[C@@H](OC(=O)C=C(C)C)CC1=C[C@@H](C[C@@]3(C)O[C@@H]23)OC1=O,3.82 µM
2,CCOC(=O)C(N)CSC(=O)NC (centres undefined),337 µM
3,O=C1NC(=O)C(CCO)(c2ccccc2)C(=O)N1,> 100 µM
4,Cc1ccc(C2CC(c3ccco3)=NN2c2ccccc2)o1 (centres undefined),> 100 µM
5,COC(=O)C(=C/c1ccc(OC)cc1)/C(C(=O)O)=C(/C)c1ccccc1,> 100 µM
6,Nc1ccc(C(=O)NN2C(=O)C(Cl)C2c2ccccc2Cl)cc1 (centres undefined),20.1 µM
7,COC(=O)C1OC(Oc2cc(O)c3c(=O)cc(-c4ccc(O)cc4)oc3c2)C(O)C(O)C1O (centres undefined),> 100 µM
8,O=C1C(Cl)C(c2ccccc2)N1n1cnc2ccccc2c1=O (centres undefined),> 100 µM
9,CN(C)C(=O)OCOC(=O)N(C)C,> 100 µM
10,CCCCN1C=CN2c3nc4cc(C)c(C)cc4n3C(C(=O)OC)=C(C(=O)OC)C12 (centres undefined),> 100 µM
11,CCCCCC(C[N+]1(C)CCOCC1)C(=O)/C=C/c1ccccc1 (centres undefined),28.2 µM
12,C/C(=C1/CCCC2(N=NCC2c2ccccc2)C1=O)c1ccccc1 (centres undefined),79.5 µM

# Tested on: SNB-78 CNS
# Experiment: NCI anticancer screen, dose series, 48 h
Structure (SMILES),GI50,TGI
C=C1C(=O)O[C@H]2[C@H]1[C@@H](OC(=O)C=C(C)C)CC1=C[C@@H](C[C@@]3(C)O[C@@H]23)OC1=O,2.35 µM and 10.6 µM,15.1 µM and 40.2 µM
O=C1NC(=O)C(CCO)(c2ccccc2)C(=O)N1,–,> 100 µM
Cc1ccc(C2CC(c3ccco3)=NN2c2ccccc2)o1 (centres undefined),–,> 100 µM
COC(=O)C(=C/c1ccc(OC)cc1)/C(C(=O)O)=C(/C)c1ccccc1,–,> 100 µM
Nc1ccc(C(=O)NN2C(=O)C(Cl)C2c2ccccc2Cl)cc1 (centres undefined),–,33 µM
COC(=O)C1OC(Oc2cc(O)c3c(=O)cc(-c4ccc(O)cc4)oc3c2)C(O)C(O)C1O (centres undefined),–,> 100 µM
O=C1C(Cl)C(c2ccccc2)N1n1cnc2ccccc2c1=O (centres undefined),–,> 100 µM
CN(C)C(=O)OCOC(=O)N(C)C,–,> 100 µM
CCCCN1C=CN2c3nc4cc(C)c(C)cc4n3C(C(=O)OC)=C(C(=O)OC)C12 (centres undefined),–,> 100 µM
CCCCCC(C[N+]1(C)CCOCC1)C(=O)/C=C/c1ccccc1 (centres undefined),–,46.9 µM
C/C(=C1/CCCC2(N=NCC2c2ccccc2)C1=O)c1ccccc1 (centres undefined),–,90.2 µM

# Tested on: TK-10 renal
# Experiment: NCI anticancer screen, dose series, 48 h
row,Structure (SMILES),TGI
1,CCOC(=O)C(N)CSC(=O)NC (centres undefined),566 µM
2,Cc1ccc(C2CC(c3ccco3)=NN2c2ccccc2)o1 (centres undefined),> 100 µM
3,COC(=O)C(=C/c1ccc(OC)cc1)/C(C(=O)O)=C(/C)c1ccccc1,> 100 µM
4,COC(=O)c1ccc(/C=C2\N=C(C)OC2=O)cc1,> 100 µM
5,Nc1ccc(C(=O)NN2C(=O)C(Cl)C2c2ccccc2Cl)cc1 (centres undefined),30.1 µM
6,O=C1C(Cl)C(c2ccccc2)N1n1cnc2ccccc2c1=O (centres undefined),> 100 µM
7,CCCCN1C=CN2c3nc4cc(C)c(C)cc4n3C(C(=O)OC)=C(C(=O)OC)C12 (centres undefined),> 100 µM
8,CCCCCC(C[N+]1(C)CCOCC1)C(=O)/C=C/c1ccccc1 (centres undefined),37.8 µM
9,C/C(=C1/CCCC2(N=NCC2c2ccccc2)C1=O)c1ccccc1 (centres undefined),> 100 µM

# Tested on: XF 498 CNS
# Experiment: NCI anticancer screen, dose series, 48 h
Structure (SMILES),GI50,TGI
C=C1C(=O)O[C@H]2[C@H]1[C@@H](OC(=O)C=C(C)C)CC1=C[C@@H](C[C@@]3(C)O[C@@H]23)OC1=O,2.4 µM,3.79 µM and 4.51 µM
CCOC(=O)C(N)CSC(=O)NC (centres undefined),–,289 µM
O=C1NC(=O)C(CCO)(c2ccccc2)C(=O)N1,–,> 100 µM
Cc1ccc(C2CC(c3ccco3)=NN2c2ccccc2)o1 (centres undefined),–,> 100 µM
COC(=O)C(=C/c1ccc(OC)cc1)/C(C(=O)O)=C(/C)c1ccccc1,–,> 100 µM
COC(=O)c1ccc(/C=C2\N=C(C)OC2=O)cc1,–,> 100 µM
Nc1ccc(C(=O)NN2C(=O)C(Cl)C2c2ccccc2Cl)cc1 (centres undefined),–,31.5 µM
COC(=O)C1OC(Oc2cc(O)c3c(=O)cc(-c4ccc(O)cc4)oc3c2)C(O)C(O)C1O (centres undefined),–,> 100 µM
O=C1C(Cl)C(c2ccccc2)N1n1cnc2ccccc2c1=O (centres undefined),–,> 100 µM
CN(C)C(=O)OCOC(=O)N(C)C,–,> 100 µM
CCCCN1C=CN2c3nc4cc(C)c(C)cc4n3C(C(=O)OC)=C(C(=O)OC)C12 (centres undefined),–,> 100 µM
CCCCCC(C[N+]1(C)CCOCC1)C(=O)/C=C/c1ccccc1 (centres undefined),–,28.3 µM
C/C(=C1/CCCC2(N=NCC2c2ccccc2)C1=O)c1ccccc1 (centres undefined),–,49.2 µM
